Consider twelve molecules from patent US4837304A, “Inhibitor of ribonucleotide reductase” (Merck & Co., Inc., priority 1987, dated 1989).

Non-standard residues stand in square brackets, D forms with d. Residues, ends and D or L forms follow the SMILES beside them. No end group written: not given here. Some results are limits rather than exact numbers.

One test deals with T1, Herpes Simplex Virus Ribonucleotide Reductase (HSV RR) (Human herpesvirus 2, UniProt P89462).
T1 construct: HSV RR was purified by Baby Hamster Kidney cells that were cultured with HSV2 Strain 186; made in house; host or cells: Baby Hamster Kidney cells infected with HSV2 Strain 186; crude enzyme per Huszar et al., then hydroxyapatite chromatography
T1 sequence (P89462 whole entry): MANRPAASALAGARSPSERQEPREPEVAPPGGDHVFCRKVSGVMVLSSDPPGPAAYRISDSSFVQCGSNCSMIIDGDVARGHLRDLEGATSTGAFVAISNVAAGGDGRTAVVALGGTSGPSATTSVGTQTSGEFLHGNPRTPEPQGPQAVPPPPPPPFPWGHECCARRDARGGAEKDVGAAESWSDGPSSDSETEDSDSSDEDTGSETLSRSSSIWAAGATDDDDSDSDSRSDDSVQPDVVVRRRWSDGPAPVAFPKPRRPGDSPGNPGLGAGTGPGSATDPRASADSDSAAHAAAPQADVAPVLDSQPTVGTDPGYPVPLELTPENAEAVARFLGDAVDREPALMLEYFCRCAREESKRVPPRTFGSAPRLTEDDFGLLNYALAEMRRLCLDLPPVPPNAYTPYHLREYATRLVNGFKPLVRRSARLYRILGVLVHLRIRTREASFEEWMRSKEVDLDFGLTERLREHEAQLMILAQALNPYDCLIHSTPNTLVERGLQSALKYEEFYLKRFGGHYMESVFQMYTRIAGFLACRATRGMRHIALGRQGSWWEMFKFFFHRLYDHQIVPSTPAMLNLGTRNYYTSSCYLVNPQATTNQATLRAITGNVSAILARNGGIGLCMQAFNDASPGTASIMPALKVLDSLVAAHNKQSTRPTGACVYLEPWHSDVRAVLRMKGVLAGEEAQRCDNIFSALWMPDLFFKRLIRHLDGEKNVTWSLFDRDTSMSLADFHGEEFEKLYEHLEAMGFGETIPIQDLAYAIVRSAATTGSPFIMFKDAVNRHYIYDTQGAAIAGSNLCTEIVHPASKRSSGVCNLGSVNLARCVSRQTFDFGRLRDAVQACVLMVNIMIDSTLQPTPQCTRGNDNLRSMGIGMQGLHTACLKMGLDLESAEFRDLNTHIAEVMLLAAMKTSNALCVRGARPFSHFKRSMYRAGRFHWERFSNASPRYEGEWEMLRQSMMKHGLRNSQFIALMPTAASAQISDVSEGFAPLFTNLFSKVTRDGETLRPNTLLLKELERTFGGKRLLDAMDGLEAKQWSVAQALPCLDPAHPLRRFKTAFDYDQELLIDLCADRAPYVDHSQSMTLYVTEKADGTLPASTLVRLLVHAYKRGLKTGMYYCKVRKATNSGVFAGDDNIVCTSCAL
Briefly: Assay of inhibition of HSV RR (reduction of tritiated cytidine-diphosphate to deoxyribo-cytidinediphosphate). Format: biochemical, HSV2 Strain 186.
Details: not given
The method, then:
After infection, cells were harvested and lysed.
HSV RR activity was determined as the ability of the enzyme to catalyze the reduction of tritiated cytidine-diphosphate to deoxyribo-cytidinediphosphate in 30 minutes at 37° C. in the presence of dithiothreitol and MgCl2. Activity of oligopeptide inhibitors was determined by adding them to the reaction mix at the beginning of the incubation. Enzyme was not preincubated with inhibitor.
These were analyzed for amino acid composition and in some cases sequenced. Dry peptides were resuspended in 100 mM HEPES (pH 8.0) at about 2mM, relyophilized, and stored in aliquots at -80° C. Immediately prior to use they were rehydrated with distilled H2 O and centrifuged to remove any undissolved peptide.
As to `CC(C)C[C@H](NC(=O)[C@H](CC(=O)O)NC(=O)[C@H](CC(N)=O)NC(=O)[C@@H](NC(=O)[C@@H](NC(=O)[C@H](C)NC(=O)CNC(=O)[C@@H](C)NC(=O)[C@@H](N)Cc1ccc(O)cc1)C(C)C)C(C)C)C(=O)O` [Y dA G A V V N D L], the IC50 worked out at 210 µM.

The test is the same for the next values; noted with them: 30 minutes at 37° C., dithiothreitol and MgCl2; enzyme not preincubated with inhibitor; read-out: IC50 (μM concentration of peptide producing 50% inhibition of enzyme activity).
Take `CC(C)C[C@H](NC(=O)[C@@H](CC(=O)O)NC(=O)[C@H](CC(N)=O)NC(=O)[C@@H](NC(=O)[C@@H](NC(=O)[C@H](C)N)C(C)C)C(C)C)C(=O)O` [A V V N dD L] (H-AVVN[dD]L-OH): the IC50 amounted to 520 µM.
The same measure, in the same setting: the result for `CC(C)C[C@H](NC(=O)[C@H](CC(=O)O)NC(=O)[C@@H](CC(N)=O)NC(=O)[C@@H](NC(=O)[C@@H](NC(=O)[C@H](C)N)C(C)C)C(C)C)C(=O)O` [A V V dN D L] (H-AVV[dN]DL-OH) reads 460 µM.
The same measure, in the same setting: the figure for `CC(C)C[C@H](NC(=O)[C@H](CC(=O)O)NC(=O)[C@H](CC(N)=O)NC(=O)[C@H](NC(=O)[C@@H](NC(=O)[C@H](C)N)C(C)C)C(C)C)C(=O)O` [A V dV N D L] (H-AV[dV]NDL-OH) is 600 µM; for `CC(C)C[C@H](NC(=O)[C@H](CC(=O)O)NC(=O)[C@@H](CC(N)=O)NC(=O)[C@@H](NC(=O)[C@@H](NC(=O)[C@H](C)NC(=O)CNC(=O)[C@H](C)NC(=O)[C@@H](N)Cc1ccc(O)cc1)C(C)C)C(C)C)C(=O)O` [Y A G A V V dN D L] it is > 620 µM; for `CC(C)C[C@H](NC(=O)[C@H](CC(=O)O)NC(=O)[C@H](CC(N)=O)NC(=O)[C@@H](NC(=O)[C@@H](NC(=O)[C@@H](C)NC(=O)CNC(=O)[C@H](C)NC(=O)[C@@H](N)Cc1ccc(O)cc1)C(C)C)C(C)C)C(=O)O` [Y A G dA V V N D L] it is 72 µM.
As for `CC(C)C[C@H](NC(=O)[C@H](CC(=O)O)NC(=O)[C@H](CC(N)=O)NC(=O)[C@@H](NC(=O)[C@@H](NC(=O)[C@H](C)NC(=O)[C@@H](C)NC(=O)[C@H](C)NC(=O)[C@@H](N)Cc1ccc(O)cc1)C(C)C)C(C)C)C(=O)O` [Y A dA A V V N D L] (H-YA[dA]AVVNDL-OH), the IC50 was determined as 88 µM.
On the same count and under the same terms, the figure for `CC(C)C[C@H](NC(=O)[C@H](CC(=O)O)NC(=O)[C@H](CC(N)=O)NC(=O)[C@@H](NC(=O)[C@@H](NC(=O)[C@@H](C)N)C(C)C)C(C)C)C(=O)O` [dA V V N D L] (H-[dA]VVNDL-OH) is 90 µM; for `CC(C)C[C@H](NC(=O)[C@H](CC(=O)O)NC(=O)[C@H](CC(N)=O)NC(=O)[C@@H](NC(=O)[C@@H](NC(=O)[C@H](C)NC(=O)CNC(=O)[C@H](C)NC(=O)[C@H](N)Cc1ccc(O)cc1)C(C)C)C(C)C)C(=O)O` [dY A G A V V N D L] it is 40 µM; for `CC(C)C[C@H](NC(=O)[C@H](CC(=O)O)NC(=O)[C@H](CC(N)=O)NC(=O)[C@@H](NC(=O)[C@@H](NC(=O)[C@H](N)Cc1ccc(O)cc1)C(C)C)C(C)C)C(=O)O` [dY V V N D L] (H-[dY]VVNDL-OH) it is 30 µM.

A further test has as its target ribonucleotide reductase enzyme of herpes simplex virus (Human herpesvirus 1, UniProt P08543).
Test: not given
The conditions noted are these: Nature 321:439-441 and 441-443 (1986); cited from earlier work.
In the case of Tyr Ala Gly Ala Val Val Asn Asp Leu, the “inhibition in vitro of the activity of the enzyme” value is “inhibited”.

The target in another test is T2, ribonucleotide reductase enzyme of herpes simplex virus (Human herpesvirus 1, UniProt P08543).
T2 sequence (P08543 whole entry, looked up): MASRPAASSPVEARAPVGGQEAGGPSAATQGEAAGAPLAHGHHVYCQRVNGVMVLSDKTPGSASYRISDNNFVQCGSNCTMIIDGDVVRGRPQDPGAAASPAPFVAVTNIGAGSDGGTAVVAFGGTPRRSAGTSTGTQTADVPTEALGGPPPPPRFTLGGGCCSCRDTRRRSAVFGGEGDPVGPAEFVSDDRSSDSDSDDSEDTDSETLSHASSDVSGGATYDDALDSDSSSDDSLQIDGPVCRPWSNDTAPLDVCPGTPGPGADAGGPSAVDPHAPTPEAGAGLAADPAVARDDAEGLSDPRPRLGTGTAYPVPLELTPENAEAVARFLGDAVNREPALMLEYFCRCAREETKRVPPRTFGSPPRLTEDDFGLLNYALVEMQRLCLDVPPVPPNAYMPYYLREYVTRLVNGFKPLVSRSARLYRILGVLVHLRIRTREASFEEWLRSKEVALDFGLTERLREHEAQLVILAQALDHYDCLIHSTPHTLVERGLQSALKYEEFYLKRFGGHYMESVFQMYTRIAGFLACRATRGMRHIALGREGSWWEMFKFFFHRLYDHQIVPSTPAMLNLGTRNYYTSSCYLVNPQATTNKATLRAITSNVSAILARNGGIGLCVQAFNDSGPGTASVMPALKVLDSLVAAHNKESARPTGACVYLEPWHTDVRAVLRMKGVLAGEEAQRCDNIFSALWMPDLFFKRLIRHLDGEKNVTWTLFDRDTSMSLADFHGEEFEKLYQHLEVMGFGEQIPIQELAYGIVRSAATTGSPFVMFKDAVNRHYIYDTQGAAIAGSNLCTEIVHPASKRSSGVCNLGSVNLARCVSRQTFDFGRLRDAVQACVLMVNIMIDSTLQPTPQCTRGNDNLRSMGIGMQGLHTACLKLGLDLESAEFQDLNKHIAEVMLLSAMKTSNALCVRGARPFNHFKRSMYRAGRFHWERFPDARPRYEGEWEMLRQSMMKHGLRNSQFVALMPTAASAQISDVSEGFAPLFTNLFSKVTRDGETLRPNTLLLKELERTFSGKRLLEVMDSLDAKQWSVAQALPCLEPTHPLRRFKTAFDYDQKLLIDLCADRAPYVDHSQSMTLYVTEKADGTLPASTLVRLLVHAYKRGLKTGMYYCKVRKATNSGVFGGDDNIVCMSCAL
Test: not given
Particulars: Nature 321:439-441 and 441-443 (1986); cited from earlier work.
With “YGAVVNDL [8-desalanine homolog of the nonapeptide, disclosed by Dutia et al]”, the “inhibition in vitro of the activity of the enzyme” value is recorded as “inhibited”.
